The data set addresses Cytochrome P450 3A4 (Homo sapiens) (UniProt P08684). Briefly: qHTS Assay for Inhibitors of Bacillus subtilis Sfp phosphopantetheinyl transferase (PPTase): CYP 3A4. The conditions noted are these: CYP3A4 inhibition, 3 uM, ADME profiling; active compounds read high. An excerpt: The covalent attachment of a phosphopantetheinyl (4'-PP) arm to a variety of synthases and other proteins is a key posttranslational protein modification. The 4'-PP is installed on the proteins post-translationally from coenzyme A (CoA) on a conserved serine residue by action of phosphopantetheinyl transferase (PPTase) enzymes. Phosphopantetheinylation is essential for synthase activity, and removal of the PPTase gene precludes natural product synthesis in microorganisms, or in the case of fatty acid biosynthesis, renders the organism unviable. PPTase enzymes belong to a distinct structural superfamily. Within bacteria, these enzymes are grouped into two classes based upon primary structure, the AcpS-Type and Sfp-Type PPTases.
Sfp-type PPTases, corresponding to an activator of surfactin production in Bacillus subtilis, are responsible for modifying type I polyketide and nonribosomal peptide synthases of prokaryotes. Sfp-type PPTases are responsible for the activation of a variety of pathogen-associated virulence factors. Among these compounds are toxins such as mycolactone from Mycobacterium ulcerans, siderophores such as vibriobactin from Vibrio cholerae or mycobactin from Mycobacterium tuberculosis, as well as the mycolic acids which form the waxy cell wall of Mycobacteria. The biosyntheses of these natural products are considered attractive targets for drug design. […]

Cytochrome P450 3A4 (Homo sapiens), sequence (P08684 whole entry, looked up): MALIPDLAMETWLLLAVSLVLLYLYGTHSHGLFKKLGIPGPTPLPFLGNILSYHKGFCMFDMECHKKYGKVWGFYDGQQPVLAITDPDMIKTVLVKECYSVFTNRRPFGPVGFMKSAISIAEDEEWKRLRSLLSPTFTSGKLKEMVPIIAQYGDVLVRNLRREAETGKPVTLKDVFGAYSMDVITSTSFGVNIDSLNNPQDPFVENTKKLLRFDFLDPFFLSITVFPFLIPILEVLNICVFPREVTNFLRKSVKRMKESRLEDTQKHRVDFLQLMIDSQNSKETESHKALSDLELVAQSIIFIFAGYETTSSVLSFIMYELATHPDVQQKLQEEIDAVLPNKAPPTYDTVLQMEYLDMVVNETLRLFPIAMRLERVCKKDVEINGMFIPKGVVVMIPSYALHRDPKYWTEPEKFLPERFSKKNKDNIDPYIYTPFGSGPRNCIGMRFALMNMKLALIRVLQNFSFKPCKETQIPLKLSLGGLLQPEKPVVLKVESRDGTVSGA

One may read the inhibition as the drop in the measured response relative to a control, in per cent. Take `COc1ccnc(NC(=S)N2CCN(c3ncc(C(F)(F)F)cc3Cl)CC2)c1`: the inhibition is 20%.

The values are drawn from PubChem BioAssay AID624118 (National Center for Advancing Translational Sciences (NCATS), 2012).
